# Source: article PMC8759731, “Design, synthesis, and evaluation of novel coumarin-dithiocarbamate derivatives (IDs) as anti-colorectal cancer agents” (Journal of Enzyme Inhibition and Medicinal Chemistry, 2021)
# Columns and labels:
# RKO cells = assay: MTS cell viability assay, RKO cells; assay type: cell-based; conditions: Homo sapiens, 72 h
# Source text: (§1) Human colorectal cancer cell lines including RKO, SW620 and SW480 were purchased from Chinese Academy of Sciences, a typical cell library culture preservation committee (Shanghai, China). Normal human colon epithelial cell line NCM460 was purchased from ATCC (Washington, DC, USA). RPMI-1640 medium (12633020), foetal bovine serum (FBS, 26170043), penicillin-streptomycin (10378016) and phosphate buffered saline (PBS, 70011044) were purchased from Gibco (Eggenstein, Germany). 5-Fluorouracil (5-FU, E0201010050, purity ≥98%) was purchased from Energy Chemical (Shanghai, China). Dimethyl sulfoxide (DMSO, 41639) was obtained from Sigma-Aldrich (St. Louis, MO). 3–(4,5-dimethylthiazol-2-yl)-5–(3-carboxymethoxyphenyl)-2–(4-sulfophenyl)-2H-tetrazolium (MTS, G1111) was purchased from Promega (Madison, WI, USA). All cell lines were cultured in RPMI-1640 medium supplemented with 10% FBS, penicillin (100 units/mL) and streptomycin ([…]) at 37 °C in a humidified atmosphere containing 5% CO2.
# (§2) Cell viability was measured via MTS assay. RKO, SW620, SW480 and NCM460 cells were seeded in 96-well plates at a density of 5000 cells per well for 24 h. After treatment with the test compounds at indicated concentration for another 48 h or 72 h at 37 °C, MTS solution was added to each well and incubated for another 30 min at 37 °C. Then, the absorbance at 490 nm was measured by a BioTek Synergy H4 microplate Reader (Vermont, USA). The IC50 values were calculated with Graphpad 7.0 software packages.
# SW620 cells [1] = assay: MTS cell viability assay, SW620 cells; assay type: cell-based; conditions: Homo sapiens
# Source text: as §1, §2
# SW480 cells [2] = assay: MTS cell viability assay, SW480 cells; assay type: cell-based; conditions: Homo sapiens, 72 h
# Source text: as §1, §2
# [3] = MTS cell viability assay, NCM460 normal colon epithelial cells; assay type: cell-based, human; conditions: human, NCM460 normal colon epithelial cells, 10 μM
# Source text: as §1, §2
# NCM460 cells = assay: as above; assay type: cell-based, human; conditions: Homo sapiens, 48 h
# Source text: as §1, §2
# SW620 cells [4] = assay: Cell cycle analysis (PI, flow cytometry), SW620 cells; assay type: cell-based, human; conditions: SW620, 16 μM, 24 h
# Procedure: (§3) Cells were seeded in 6-well plates (40,000 cells per well) and cultured in RPMI-1640 medium containing 10% FBS overnight. Then the cells were exposed to DMSO or compound ID-11 (8 or 16 μM) for 24 h. After that, cells were collected, washed with cold PBS for twice and fixed in 75% ethanol overnight at 4 °C. Subsequently, ethanol was removed and suspended in PBS for twice, and then RNase A and propidium iodide (PI) (Multi Sciences, Hangzhou, China) was added and keep in the darkness for 30 min. Finally, the percentages of cells in different cell cycle phases were measured using a FACS Calibur flow cytometer (Bectone Dickinson, San Jose, CA, USA).
# SW480 cells [5] = assay: Cell cycle analysis (PI, flow cytometry), SW480 cells; assay type: cell-based, human; conditions: SW480, 16 μM, 24 h
# Procedure: as §3
# SW620 cells [6] = assay: Annexin V-FITC/PI apoptosis analysis, SW620 cells; assay type: cell-based, human; conditions: SW620, 16 μM, 24 h
# Procedure: (§4) Cell apoptosis was determined using Annexin V-FITC/PI Apoptosis Detection Kit (BD Biosciences, New Jersey, USA) in according with manufacturer's instruction. Briefly, cells were cultured in 6-well plates (40 000 cells per well) till reaching logarithmic growth phase and then treatment with DMSO or compound ID-11 (8 or 16 μM) for 24 h. Afterwards, the cells were harvested, washed with PBS for twice and stained with 100 μL of the mixture of Annexin V/FITC and PI in binding buffer (v/v, 5: 5: 100) in the darkness for 30 min. Another 200 μL binding buffer was added before detection. The apoptotic cells were then analysed by FACS Calibur flow cytometry immediately.
# SW480 cells [7] = assay: Annexin V-FITC/PI apoptosis analysis, SW480 cells; assay type: cell-based, human; conditions: SW480, 16 μM, 24 h
# Procedure: as §4
# SW620 cells [8] = assay: Western blot assay, SW620 cells; assay type: cell-based, human; conditions: 24 h
# Procedure: (§5) Cells were cultured in 6-well plates at a density of 40,000 cells per well overnight, and then exposed to selected compounds at different concentrations for 24 h. Subsequently, the cells were lysed in lysate buffer containing 50 mM Tris-HCl (PH 6.8), 2% SDS, 0.1% bromophenol blue, 1.5% DTT, 10% glycerol. The total protein extracts were boiled, sonicated, separated by 10–12% SDS-PAGE gels and transferred to polyvinylidene fluoride (PVDF) membranes. Then the membranes were blocked with 5% non-fat milk at room temperature for 1 h and incubated with primary antibodies at 4 °C overnight. After that, membranes were washed with 1× TBST for three times and incubated with secondary antibody at room temperature for 2 h. Finally, after washing with 1× TBST for three times, the bolts were visualised by an enhanced chemiluminescence kit (Beyotime, China) using the Amersham Imager 600 system (GE Healthcare Life Science, Shanghai, China).
# SW480 cells [9] = assay: Western blot assay, SW480 cells; assay type: cell-based, human; conditions: 24 h
# Procedure: as §5
# SW480 cells [10] = assay: Quantitative RT-PCR, SW480 cells; assay type: cell-based, human; conditions: SW480, 0 to 24 μM, 24 h, qRT-PCR
# Procedure: Cells (50,000 cells per well) incubated in 6-well plates were treated with compound ID-11 for 24 h. After that, the total RNA was extracted using Total RNA Extraction Reagent (Invitrogen, USA) according to the manufacturer’s instructions and quantified with NanoDrop 2000 (Nanodrop, USA). Then the cDNA was synthesized from total RNA using High-Capacity cDNA Reverse Transcription Kit (Applied Biosystems, USA). The SYBR Green Master reagents (Applied Biosystems, USA) was used to determine the relative expression of mRNA level by quantitative real-time PCR (qRT-PCR). The primer sequences are shown below.
smiles,measurement,setting,value
"O=c1ccc2cc(CSC(=S)n3ccnc3)ccc2o1 [ID-11, (2-Oxo-2H-chromen-6-yl)methyl 1H-imidazole-1-carbodithioate]",viability at 10 µM,RKO cells; 10 μM,29.4%
same,IC50,RKO cells,6.4 µM
same,viability at 10 µM,"SW620 cells [1]; SW-620, 10 μM, 72 h",43.9%
same,IC50,"SW620 cells [1]; SW-620, 72 h",8.81 µM
same,viability at 10 µM,SW480 cells [2]; 10 μM,20.2%
same,IC50,SW480 cells [2],3.57 µM
same,"viability at 48 h, 10 µM",[3],80.8%
same,IC50,NCM460 cells,23.9 µM
same,cell cycle distribution G2 (G2/M phase),SW620 cells [4],33.13%
same,cell cycle distribution G2 (G2/M phase),SW480 cells [5],21.03%
same,total apoptosis rate,SW620 cells [6],73.31%
same,total apoptosis rate,SW480 cells [7],23.23%
same,expression level of cdc2,"SW620 cells [8]; SW620, 0 to 16 μM",decreased in a concentration-dependent way
same,expression level of cleaved PARP,"SW620 cells [8]; SW620, 0 to 16 μM",increased in a dose-dependent way
same,expression level of cyclin B1,"SW620 cells [8]; SW620, 0 to 16 μM",decreased in a concentration-dependent way
same,protein expression level of Bcl-2,"SW620 cells [8]; SW620, 0 to 24 μM",decreased
same,protein expression level of c-Myc,"SW620 cells [8]; SW620, 0 to 24 μM",decreased
same,expression level of cdc2,"SW480 cells [9]; SW480, 0 to 16 μM",decreased in a concentration-dependent way
same,expression level of cleaved PARP,"SW480 cells [9]; SW480, 0 to 16 μM",increased in a dose-dependent way
same,expression level of cyclin B1,"SW480 cells [9]; SW480, 0 to 16 μM",decreased in a concentration-dependent way
same,protein expression level of Bcl-2,"SW480 cells [9]; SW480, 0 to 24 μM",decreased
same,protein expression level of c-Myc,"SW480 cells [9]; SW480, 0 to 24 μM",decreased
same,mRNA relative expression level of Bcl-2,SW480 cells [10],also decreased in a concentration dependent way
same,mRNA relative expression level of c-Myc,SW480 cells [10],also decreased in a concentration dependent way
same,melting point,,139.1 to 140 °C
